# Test results as given in patent US4395405A, “Alkyl-ketohexopyranoside derivatives and method of use” (Hisamitsu Pharmaceutical Co., Inc., priority 1979, dated 1983).
# Legend:
# IgG and IgM [1] = assay: Amount of antibodies formed in mice, PHA reaction; type: in vivo, mice (BALB/c strain), female; conditions: 100 mg/Kg/day for 5 days
# Experimental: The collected serum was diluted in various concentrations and incubated with sheep red blood cells coupled with DNP-As using bis-diazoated benzydine to determine the dilution of the serum which induced the minimum hemaglutination.
# (§1) Effects on the formation of homocytotropic antibodies in mice
# (§2) Groups each consisting of 5 female mice (BALB/c strain) were used in this experiment. The mice were sensitized with 10 μg of DNP-As as protein and 3 mg of Al(OH)3, after which the test compound was administered to the sensitized mice for 5 days (at a dose of 100 mg/Kg/day). After the sensitization, a sample of serum was collected from the mice and treated in the same manner as in Experiment 1 to determine the amount of antibodies formed. […]
# IgE antibodies [2] = assay: Formation of homocytotropic antibodies in mice, PCA reaction; type: in vivo, mice (BALB/c strain), female; conditions: 100 mg/Kg/day for 5 days
# Experimental: (§3) The collected serum was diluted in various concentrations and intradermally injected to other rats. Forty-eight (48) hours after the injection, 2 mg of DNP-As as protein and 0.5 ml of a 1% Evans Blue were intravenously injected into these rats to determine the dilution of the serum which induced the minimum extravasted dye. It should be noted that the symbols "*" and "**" in the following Tables indicate significant differences at risks of 5% and 1%, respectively.
# as §1, §2
# IgG and IgM [3] = assay: Amount of antibodies formed in rats, PHA (phytohemaglutinin) reaction; type: in vivo, rats of wistar strain; conditions: Table 5 right half, hypodermic administration; serum 8 days after sensitization; control 3235.9 (2454.7-4265.8)
# Experimental: (§4) Effects on the formation of homocytotropic antibodies in rats
# (§5) An experiment was carried out in accordance with the Tada and Okumura's method (J. Immunol., Vol. 106, p 1002, 1971).
# (§6) Groups each consisting of 8-9 rats of wistar strain were used in this experiment.
# (§7) As shown in Tables 2-5, to the four legs of the rats were injected 1 mg of dinitrophenylated extract of ascaris suum (DNP-As) as protein and 10^10 cells of vaccinum pertussis (B. Pertussis) for sensitization, after which the compounds of this invention were administered to the injected rats for 5 days. Eight to nine days after the sensitization, bloodletting was effected on these rats to collect their serum for estimating the amount of antibodies formed using passive cutaneous anaphylaxis (PCA) reactions and phytohemaglutinin (PHA) reactions.
# (2) Estimation of the amount of antibodies by PHA reaction:
# The collected serum was diluted in various concentrations and incubated with sheep red blood cells coupled with DNP-As using bis-diazoated benzydine to determine the dilution of the serum which induced the minimum hemaglutination. […]
# IgE antibodies [4] = assay: Formation of homocytotropic antibodies in rats, PCA (passive cutaneous anaphylaxis) reaction; type: in vivo, rats of wistar strain; conditions: Table 3 right half, hypodermic administration; serum 8 days after sensitization; control 269.2 (218.8-331.1)
# Experimental: as §4, §5, §6, §7
# (1) Estimation of the amount of antibodies by PCA reaction:
# as §3, with “respectively. […]” for “respectively.”
# [5] = Acute poisoning test on rats; conditions: rat, in vivo, three weeks
# Experimental: (§8) Each of the test compounds was suspended in a physiological solution of sodium chloride containing 0.5% of tragacanth gum to obtain a test suspension. The test suspensions so obtained were administered to rats and mice in various ways. LD50 was calculated from test animals which died in three weeks after the start of the test.
# [6] = Acute poisoning test on mice; conditions: mouse, in vivo, three weeks
# Experimental: as §8
smiles,measurement,setting,value
"CC(C)COC1(CO)OCC(O)C(O)C1O [Compound No. 10, isobutyl-α-L-sorbopyranoside]",PHA of mice (serum dilution),"IgG and IgM [1]; Table 10, oral, serum 10 days after, control 125.9 (95.5-166.0)",109.7
same,PHA of mice (serum dilution),"IgG and IgM [1]; Table 11, hypodermic, serum 9 days after, control 380.2 (269.2-537.0)",154.9 (125.9-190.6)
same,PHA of mice (serum dilution),"IgG and IgM [1]; Table 11, hypodermic, serum 10 days after, control 109.7 (95.5-125.9)",102.3 (83.2-125.9)
same,PHA of mice (serum dilution),"IgG and IgM [1]; Table 11, hypodermic, serum 37 days after, control 1071.5 (871.0-1318.3)",1148.2 (933.3-1412.5)
same,PCA of mice (serum dilution),"IgE antibodies [2]; Table 7, oral, serum 10 days after sensitization, control 537.0 (436.5-660.7)",501.2
same,PCA of mice (serum dilution),"IgE antibodies [2]; Table 8, hypodermic, serum 9 days after, control 708.0 (575.4-871.0)",537.0
same,PCA of mice (serum dilution),"IgE antibodies [2]; Table 8, hypodermic, serum 10 days after, control 537.0 (380.2-758.6)",708.0
same,PCA of mice (serum dilution),"IgE antibodies [2]; Table 8, hypodermic, serum 37 days after, control 2818.4 (1862.1-4265.8)",1513.6
same,PHA of rat: dilution of the serum which induced the minimum hemaglutination,IgG and IgM [3],5248.1 (3715.4-7413.1)
same,PCA of rat: dilution of the serum which induced the minimum extravasted dye,IgE antibodies [4],177.8 (134.9-234.4)
same,LD50 at 504 h,"[5]; ip, abdominally, female",~2000 mg/kg
same,LD50 at 504 h,"[5]; ip, abdominally, male",~2000 mg/kg
same,LD50 at 504 h,"[5]; iv, intravenously, female",1000 to 2000 mg/kg
same,LD50 at 504 h,"[5]; iv, intravenously, male",1000 to 2000 mg/kg
same,LD50 at 504 h,"[5]; po, orally, female",> 5000 mg/kg
same,LD50 at 504 h,"[5]; po, orally, male",> 5000 mg/kg
same,LD50 at 504 h,"[5]; sc, hypodermically, female",> 5000 mg/kg
same,LD50 at 504 h,"[5]; sc, hypodermically, male",> 5000 mg/kg
same,LD50 at 504 h,"[6]; ip, abdominally, female",500 to 1000 mg/kg
same,LD50 at 504 h,"[6]; ip, abdominally, male",500 to 1000 mg/kg
same,LD50 at 504 h,"[6]; iv, intravenously, female",1000 to 2000 mg/kg
same,LD50 at 504 h,"[6]; iv, intravenously, male",1000 to 2000 mg/kg
same,LD50 at 504 h,"[6]; po, orally, female",2000 to 5000 mg/kg
same,LD50 at 504 h,"[6]; po, orally, male",2000 to 5000 mg/kg
same,LD50 at 504 h,"[6]; sc, hypodermically, female",~2000 mg/kg
same,LD50 at 504 h,"[6]; sc, hypodermically, male",~2000 mg/kg
